Test results: patent US8895503B2, “Pharmaceutical composition for transnasal administration of peptide hormones or cytokines” (Toray Industries, Inc., priority 2008, dated 2014)
Where no end group is shown, it is not given here.

Experiments:
[1] = Nasal administration of insulin with peptides of SEQ ID NOs:1 to 6 (Example 5); conditions: for AAC: blood glucose reduction
Excerpt: The prepared solutions were subjected to the evaluation in the same manner as in Example 1.

[2] = Nasal administration of insulin with peptide to rats (Example 1); format: in vivo, rat; conditions: male SD rats, insulin 10 IU/kg with 0.5 mM peptide or insulin only
Description: (§1) Male SD rats having a body weight of about 200 g were fasted for 24 hours and anesthetized by intraperitoneal injection of 50 mg/kg of pentobarbital, followed by incision of the cervical part to expose trachea. […] The tip of the tube to be inserted into the choanae was preliminarily tightly sealed with absorbent cotton and an adhesive. To prevent leakage of the drug solution, the nasopalatine duct in maxilla opening into the oral cavity was closed with a synthetic adhesive (Aron Alpha A; manufactured by Daiichi Sankyo Company, Limited).

[3] = Nasal administration of insulin, dependency on peptide concentration (Example 2); conditions: rats, only insulin, no peptide
Description: as §1

[4] = rats, nasal, insulin 1 IU/kg with 0.5 mM L-amino acid peptide or no peptide
[5] = blood insulin, rats, nasal, insulin 1 IU/kg with 0.5 mM L-amino acid peptide or no peptide
[6] = male, SD, rat, in vivo, inhaled or intranasal

Tmax [1, 6] [min] | Compound | AAC [1, 4] [% glu. reduc. h] | AUC [1, 5] [μU · h./mL] | Cmax [1, 5] [μU/mL] | PA (pharmaceutical availability, based on changes in blood glucose level) [1, 4] [%] | blood insulin level (FIG. 1) [2] | bioavailability (BA) of insulin ([2]; vs subcutaneous insulin) [%] | Tmax [1, 5] [min] | BA (bioavailability, based on changes in blood insulin level) [1, 4] [%] | increase in the blood insulin level (FIG. 8) [1, 4] | bioavailability of insulin [3] [%]
11.3 | KQIKIWFQNKKMKWKK-OH [SEQ ID NO: 4] | 10.3 | – | – | 11.2 | – | – | – | – | – | –
16.0 | KQIRIWFQNKKMRWRR-OH [SEQ ID NO: 5] | 21.5 | – | – | 23.4 | – | – | – | – | – | –
11.7 | KKWKMRRNQFWIKIQR-OH [SEQ ID NO: 2] | 13.5 | – | – | 14.7 | – | – | – | – | – | –

The remaining lines, values behind:

Compound | Tmax [1, 6] [min] | AAC [1, 4] [% glu. reduc. h] | AUC [1, 5] [μU · h./mL] | Cmax [1, 5] [μU/mL] | PA (pharmaceutical availability, based on changes in blood glucose level) [1, 4] [%] | blood insulin level (FIG. 1) [2] | bioavailability (BA) of insulin ([2]; vs subcutaneous insulin) [%] | Tmax [1, 5] [min] | BA (bioavailability, based on changes in blood insulin level) [1, 4] [%] | increase in the blood insulin level (FIG. 8) [1, 4] | bioavailability of insulin [3] [%]
CC[C@H](C)[C@H](NC(=O)[C@H](CCCCN)NC(=O)[C@@H](NC(=O)[C@H](CCC(N)=O)NC(=O)[C@@H](N)CCCNC(=N)N)[C@@H](C)CC)C(=O)N[C@@H](Cc1c[nH]c2ccccc12)C(=O)N[C@@H](Cc1ccccc1)C(=O)N[C@@H](CCC(N)=O)C(=O)N[C@@H](CC(N)=O)C(=O)N[C@@H](CCCNC(=N)N)C(=O)N[C@@H](CCCNC(=N)N)C(=O)N[C@@H](CCSC)C(=O)N[C@@H](CCCCN)C(=O)N[C@@H](Cc1c[nH]c2ccccc12)C(=O)N[C@@H](CCCCN)C(=O)N[C@@H](CCCCN)C(=O)N[C@@H](CCCNC(=N)N)C(=O)N[C@@H](CCCNC(=N)N)C(=O)N[C@@H](CCCNC(=N)N)C(=O)N[C@@H](CCCNC(=N)N)C(=O)O [SEQ ID NO: 6] | – | 14.4 | 55.2 | 187.3 | 15.7 | – | – | – | – | – | –
insulin [reference compound] | – | 4.3 | 6.4 | – | 4.7 | hardly exhibited increase in the blood insulin level | 0.8 | 10.8 | 2.3 | could be hardly observed | 1.7
RQIRIWFQNRRMRWRR-OH [SEQ ID NO: 3] | 18.3 | 17.1 | – | – | 18.6 | – | – | – | – | – | –
